Earlier results, collected in patent publication US20220184108A1, “PHARMACEUTICAL AND NUTRITIONAL COMPOSITION TO MAXIMIZE NAD ENZYME'S HEALTH BENEFITS” (East West Products Corp., priority 2020, published 2022).

Legend:
[1] = doses of up to 500 mg; human study, Keio University School of Medicine
Slc12a8 NMN transporter = target: T1, Slc12a8 NMN transporter (Mus musculus, UniProt Q8VI23); settings: mice; through the Slc12a8 NMN transporter
T1 sequence (Q8VI23 1-705): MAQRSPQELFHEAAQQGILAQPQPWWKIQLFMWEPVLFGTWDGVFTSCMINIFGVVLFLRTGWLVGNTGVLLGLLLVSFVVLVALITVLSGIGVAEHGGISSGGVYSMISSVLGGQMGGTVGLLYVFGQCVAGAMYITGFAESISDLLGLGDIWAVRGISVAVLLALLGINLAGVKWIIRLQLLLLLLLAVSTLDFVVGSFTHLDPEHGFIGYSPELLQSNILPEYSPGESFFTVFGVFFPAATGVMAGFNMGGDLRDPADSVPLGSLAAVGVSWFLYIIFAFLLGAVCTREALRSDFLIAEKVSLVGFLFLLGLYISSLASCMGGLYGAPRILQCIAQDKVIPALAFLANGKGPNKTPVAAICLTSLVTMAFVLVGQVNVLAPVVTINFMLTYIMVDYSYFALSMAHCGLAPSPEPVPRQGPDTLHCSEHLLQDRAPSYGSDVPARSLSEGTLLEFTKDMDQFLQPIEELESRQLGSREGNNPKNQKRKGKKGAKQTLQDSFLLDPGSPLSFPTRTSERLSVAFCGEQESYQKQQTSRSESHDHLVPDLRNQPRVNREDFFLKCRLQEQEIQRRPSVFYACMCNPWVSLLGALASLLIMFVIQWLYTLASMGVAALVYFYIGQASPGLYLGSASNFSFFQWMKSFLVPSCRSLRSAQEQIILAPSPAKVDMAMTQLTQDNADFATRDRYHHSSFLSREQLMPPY

SMILES: NC(=O)c1ccc[n+]([C@@H]2O[C@H](COP(=O)([O-])O)[C@@H](O)[C@H]2O)c1 [NMN, Nicotinamide mononucleotide]
- safety in men [1]: safe
- time for NMN to enter cells via the small intestines converting to NAD+ (Slc12a8 NMN transporter): ≤ 10 min
